# Assay results taken from patent US10183938B2, “Geminal substituted quinuclidine amide compounds as agonists of α-7 nicotonic acetylcholine receptors” (AXOVANT SCIENCES GMBH, priority 2014, dated 2019).
# Structures can show the parent of a compound that is named as a salt.
# Target: human α7 nAChRs transiently expressed in Xenopus laevis oocytes (Homo sapiens (Human), UniProt P36544)
# Assay: Oocyte electrophysiology screen (TEVC)
# Assay type: cell-based
# Conditions: 0.01 mM test compound, peak current relative to 0.2 mM ACh
# Protocol: Oocyte Electrophysiology Screen (% ACh @ 10 μM Oocyte)
# The Oocyte Electrophysiology Screen studies were performed under contract by HiQScreen Geneva, Switzerland. All experiments were carried out at human α7 nAChRs transiently expressed in Xenopus laevis oocytes using the method of cDNA expression. Currents evoked by acetylcholine or other agonist ligands were recorded using the standard two-electrode voltage-clamp configuration (TEVC). X. laevis oocytes were prepared and injected using standard procedures. Briefly, ovaries were harvested from X. laevis females that were deeply anesthetized and pithed following the animal rights rule from the Geneva canton. A small piece of ovary was isolated for immediate preparation while the remaining part was placed at 4° C. in a sterile Barth solution containing in mM: NaCl 88, KCl 1, NaHCO3 2.4, HEPES 10, MgSO4.7H2O 0.82, Ca(NO3)2.4H2O 0.33, CaCl2.6H2O 0.41, at pH 7.4, and supplemented with 20 μg/mL of kanamycin, 100 unit/mL penicillin and 100 μg/mL streptomycin. […] Cells were held at −80 mV. Data were filtered at 10 Hz, captured at 100 Hz and analyzed using proprietary data acquisition and analysis software running under Matlab (Mathworks Inc.).
# Experimental Protocol and Analysis
# After establishing a baseline transmembrane current, acetylcholine (ACh) was applied for 5 seconds at a concentration of 0.2 mM to establish a control ACh-evoked current response. Following a wash period of 90 s in OR2 medium (free of ACh), cells were then exposed for 30 s to the test compound applied at 0.01 mM. The same reference ACh test pulse was immediately given at the end of the compound exposure and again after 90 s of recovery in OR2 Medium (free of ACh or test compound). All data were determined in triplicate. The response evoked by the test compound was expressed as a percentage of that evoked by ACh: Response (% ACh)=100×(Itest/IACh) where Itest is the peak inward current measured during exposure to 0.01 mM of test compound and IACh is the peak inward current measured in the presence of ACh.
# human α7 nAChRs transiently expressed in Xenopus laevis oocytes, sequence (P36544 23-502 limits assumed): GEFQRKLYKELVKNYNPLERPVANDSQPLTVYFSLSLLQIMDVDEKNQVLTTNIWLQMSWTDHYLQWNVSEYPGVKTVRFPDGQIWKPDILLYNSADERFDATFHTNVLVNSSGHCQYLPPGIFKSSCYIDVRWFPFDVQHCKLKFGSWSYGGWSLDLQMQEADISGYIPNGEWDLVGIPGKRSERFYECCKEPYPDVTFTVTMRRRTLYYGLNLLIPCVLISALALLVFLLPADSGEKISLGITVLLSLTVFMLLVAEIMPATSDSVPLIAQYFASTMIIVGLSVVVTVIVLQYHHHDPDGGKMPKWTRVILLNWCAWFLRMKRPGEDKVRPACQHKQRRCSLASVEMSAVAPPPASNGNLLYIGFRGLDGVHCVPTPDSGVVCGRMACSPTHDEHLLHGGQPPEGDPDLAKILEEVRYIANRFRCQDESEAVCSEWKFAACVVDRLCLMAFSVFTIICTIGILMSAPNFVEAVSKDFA
Compound,% ACh @ 10 μM Oocyte [% ACh],% ACh @ 10 μM Oocyte (hydrochloride) [% ACh]
"O=C(NC1C2CCN(CC2)C12CC2)c1cc2cccc(C(F)(F)F)c2s1 (single isomer, unassigned; enantiomer2) [60b, N-(1′-azaspiro[cyclopropane-1,2′-bicyclo[2.2.2]octan]-3′-yl)-7-(trifluoromethyl)benzo[b]thiophene-2-carboxamide-enantiomer2]",1,–
"O=C(NC1C2CCN(CC2)C12CC2)c1cc2ccc(F)cc2s1 (single isomer, unassigned; enantiomer2) [61b, 6-fluoro-N-(1′-azaspiro[cyclopropane-1,2′-bicyclo[2.2.2]octan]-3′-yl)benzo[b]thiophene-2-carboxamide-enantiomer2]",1,–
"Nc1ccc2cc(C(=O)NC3C4CCN(CC4)C34CC4)sc2c1 (single isomer, unassigned; enantiomer2) [62b, 6-amino-N-(1′-azaspiro[cyclopropane-1,2′-bicyclo[2.2.2]octan]-3′-yl)benzo[b]thiophene-2-carboxamide-enantiomer2 hydrochloride]",–,995
"O=C(NC1C2CCN(CC2)C12CC2)c1cc2ccc(C(F)(F)F)cc2s1 (single isomer, unassigned; enantiomer2) [63b, N-(1′-azaspiro[cyclopropane-1,2′-bicyclo[2.2.2]octan]-3′-yl)-6-(trifluoromethyl)benzo[b]thiophene-2-carboxamide-enantiomer2]",3,–
"O=C(NC1C2CCN(CC2)C12CC2)c1cc2cc(F)ccc2s1 (single isomer, unassigned; enantiomer2) [64b, 5-fluoro-N-(1′-azaspiro[cyclopropane-1,2′-bicyclo[2.2.2]octan]-3′-yl)benzo[b]thiophene-2-carboxamide-enantiomer2]",1,–
"O=C(NC1C2CCN(CC2)C12CC2)c1cc2ccc(Cl)cc2s1 (single isomer, unassigned; enantiomer2) [65b, 6-chloro-N-(1′-azaspiro[cyclopropane-1,2′-bicyclo[2.2.2]octan]-3′-yl)benzo[b]thiophene-2-carboxamide-enantiomer2 hydrochloride]",–,1
"O=C(NC1C2CCN(CC2)C12CC2)c1cc2cc(Cl)c(Cl)cc2s1 (single isomer, unassigned; enantiomer2) [67b, 5,6-dichloro-N-(1′-azaspiro[cyclopropane-1,2′-bicyclo[2.2.2]octan]-3′-yl)benzo[b]thiophene-2-carboxamide-enantiomer2 hydrochloride]",1,–
"Cc1ccc2cc(C(=O)NC3C4CCN(CC4)C34CC4)sc2c1 (single isomer, unassigned; enantiomer2) [68b, 6-methyl-N-(1′-azaspiro[cyclopropane-1,2′-bicyclo[2.2.2]octan]-3′-yl)benzo[b]thiophene-2-carboxamide-enantiomer2 hydrochloride]",–,5
"Cc1ccc2sc(C(=O)NC3C4CCN(CC4)C34CC4)cc2c1 (single isomer, unassigned; enantiomer2) [69b, 5-methyl-N-(1′-azaspiro[cyclopropane-1,2′-bicyclo[2.2.2]octan]-3′-yl)benzo[b]thiophene-2-carboxamide-enantiomer2 hydrochloride]",–,1
"O=C(NC1C2CCN(CC2)C12CC2)c1cc2cc(C(F)(F)F)ccc2s1 (single isomer, unassigned; enantiomer2) [70b, N-(1′-azaspiro[cyclopropane-1,2′-bicyclo[2.2.2]octan]-3′-yl)-5-(trifluoromethyl)benzo[b]thiophene-2-carboxamide-enantiomer2 hydrochloride]",–,1
"O=C(NC1C2CCN(CC2)C12CC2)c1cc2ccc(C3CC3)cc2s1 (single isomer, unassigned; enantiomer2) [71b, 6-cyclopropyl-N-(1′-azaspiro[cyclopropane-1,2′-bicyclo[2.2.2]octan]-3′-yl)benzo[b]thiophene-2-carboxamide-enantiomer2 hydrochloride]",–,2
"O=C(NC1C2CCN(CC2)C12CC2)c1cc2cc(C3CC3)ccc2s1 (single isomer, unassigned; enantiomer2) [72b, 5-cyclopropyl-N-(1′-azaspiro[cyclopropane-1,2′-bicyclo[2.2.2]octan]-3′-yl)benzo[b]thiophene-2-carboxamide-enantiomer2 hydrochloride]",–,1
"COc1ccc2cc(C(=O)NC3C4CCN(CC4)C34CC4)sc2c1 (single isomer, unassigned; enantiomer2) [73b, 6-methoxy-N-(1′-azaspiro[cyclopropane-1,2′-bicyclo[2.2.2]octan]-3′-yl)benzo[b]thiophene-2-carboxamide-enantiomer2 hydrochloride]",–,1
"COc1ccc2sc(C(=O)NC3C4CCN(CC4)C34CC4)cc2c1 (single isomer, unassigned; enantiomer2) [74b, 5-methoxy-N-(1′-azaspiro[cyclopropane-1,2′-bicyclo[2.2.2]octan]-3′-yl)benzo[b]thiophene-2-carboxamide-enantiomer2 hydrochloride]",–,4
"CC1(C)[C@H](NC(=O)c2cc3ccccc3s2)C2CCN1CC2 [(R)-1, (R)—N-(2,2-dimethylquinuclidin-3-yl)benzo[b]thiophene-2-carboxamide hydrochloride]",401,–
"COc1ccc2sc(C(=O)N[C@@H]3C4CCN(CC4)C3(C)C)cc2c1 [(R)-21, (R)—N-(2,2-dimethylquinuclidin-3-yl)-5-methoxybenzo[b]thiophene-2-carboxamide hydrochloride]",73,–
"Cc1csc2cc(C(=O)N[C@@H]3C4CCN(CC4)C3(C)C)ccc12 [(R)-25, (R)—N-(2,2-dimethylquinuclidin-3-yl)-3-methylbenzo[b]thiophene-6-carboxamide hydrochloride]",7,–
"CC1(C)[C@H](NC(=O)c2ccc3cc[nH]c3c2)C2CCN1CC2 [(R)-26, (R)—N-(2,2-dimethylquinuclidin-3-yl)-1H-indole-6-carboxamide hydrochloride]",687,–
"CC1(C)[C@H](NC(=O)c2cnn3ncccc23)C2CCN1CC2 [(R)-27, (R)—N-(2,2-dimethylquinuclidin-3-yl)pyrazolo[1,5-b]pyridazine-3-carboxamide hydrochloride]",0,–
"CC1(C)[C@H](NC(=O)c2nc3ccccc3s2)C2CCN1CC2 [(R)-29, (R)—N-(2,2-dimethylquinuclidin-3-yl)benzo[d]thiazole-2-carboxamide hydrochloride]",448,–
"CC1(C)[C@H](NC(=O)c2ccc3ccoc3c2)C2CCN1CC2 [(R)-31, (R)—N-(2,2-dimethylquinuclidin-3-yl)benzofuran-6-carboxamide hydrochloride]",294,–
"Cc1nc2cc(C(=O)N[C@@H]3C4CCN(CC4)C3(C)C)ccc2o1 [(R)-32, (R)—N-(2,2-dimethylquinuclidin-3-yl)-2-methylbenzo[d]oxazole-5-carboxamide]",61,–
"Cc1nc2ccc(C(=O)N[C@@H]3C4CCN(CC4)C3(C)C)cc2o1 [(R)-33, (R)—N-(2,2-dimethylquinuclidin-3-yl)-2-methylbenzo[d]oxazole-6-carboxamide]",6,–
"Cc1nc2cc(C(=O)N[C@@H]3C4CCN(CC4)C3(C)C)ccc2s1 [(R)-34, (R)—N-(2,2-dimethylquinuclidin-3-yl)-2-methylbenzo[d]thiazole-5-carboxamide hydrochloride]",159,–
"Cc1nc2ccc(C(=O)N[C@@H]3C4CCN(CC4)C3(C)C)cc2s1 [(R)-35, (R)—N-(2,2-dimethylquinuclidin-3-yl)-2-methylbenzo[d]thiazole-6-carboxamide hydrochloride]",6,–
"CC1(C)[C@H](NC(=O)c2ccc3occc3n2)C2CCN1CC2 [(R)-37, (R)—N-(2,2-dimethylquinuclidin-3-yl)furo[3,2-b]pyridine-5-carboxamide hydrochloride]",5,–
"Cc1cc2cc(C(=O)N[C@@H]3C4CCN(CC4)C3(C)C)ccc2o1 [(R)-38, (R)—N-(2,2-dimethylquinuclidin-3-yl)-2-methylbenzofuran-5-carboxamide hydrochloride]",339,–
